# Assays:
# Format in all cases: cell-based, human
# CDK1 = experiment: immunoblotting of G2/M-arrested cells incubated with CDK1 inhibitor; conditions: T47D
# Protocol: To detect expression of PBK/TOPK (WT, T9A, KD, T9A/KD), p47, p97 or PP1α proteins, immunoblottings were performed according to previous report (Park et al., 2006). Briefly, cells were lysed in lysis buffer (50 mM Tris-HCl, pH 8.0/150 mM NaCl/0.5% NP-40) followed by homogenization and incubation on ice for 30 minutes, only soluble fractions were separated from cell debris by centrifugation. After SDS-PAGE (sodium dodecyl sulfate polyacrylamide gel electrophoresis), the proteins were blotted onto nitrocellulose membrane (GE Healthcare, Buckinghamshire, United Kingdom), incubated with the corresponding antibodies, and visualized using an ECL detection kit (GE Healthcare). To collect the mitotic cells, the present inventors employed a “mitotic shake-off” method as described previously (Dechat T et al., EMBO J. 17: 4887-902 (1998)). A protein-protein interaction was examined by immunoprecipitation after co-transfection with above described constructs of interest to COS-7 cells using the FuGene6 reagent (Roche) as described previously (Shimo A et al., Cancer Sci 98: 174-81 (2007)) except using an anti-6×His antibody (Santa Cruz Biotechnology) to precipitated p97/VCP-myc-6×His protein. After washing 5 times with lysis buffer, immunocomplexes were loaded on a SDS-PAGE gel and immunoblotted as described above.
# An active recombinant PBK/TOPK protein was purchased from Invitrogen (Carlsbad, Calif.), and recombinant proteins of Histone H3 and Protein Phosohatase 1-alpha (PP1α were from Upstate Biotechnology (Lake Placidy, N.Y.). Cyclin-dependent kinase-1 (CDK1 kinase) (cdc2/cyclin B1) and lambda protein phosphatase (λPPase) were from New England Biolabs (Ipswich, Mass.). The glutathione S-transferase (GST)-tagged PBK/TOPK (GST-PBK/TOPK) protein was expressed in Escherichia coli and purified with Glutathione Sepharose 4B beads (GE Heath care, Buckinghamshire, United Kingdom) according to the previous report (Lin et al., 2007). […]
# PBK/TOPK [1] = experiment: western blot of PBK/TOPK phosphorylation after okadaic acid; conditions: T47D
# Protocol: Wild-type and kinase-dead PBK/TOPK proteins were exogenously expressed by transfection into T47D cell using pCAGGS-nHA expression vector. Whole cell lysates were harvested 48 h after the transfection. The cells were lysed in the cell lysis buffer as described above. The following procedures are the same as described above except that anti-HA rat high-affinity antibody (Roche) was used for the antibody reaction. […] The following procedures were also carried out as described above. Phosphorylated protein was confirmed by treatment with 1 U of lambda protein phosphatase (New England Biolabs, Ipswich, Mass.) at 30° C. for 2 h.
# PBK/TOPK [2] = experiment: western blot of PBK/TOPK after nocodazole; conditions: T47D; 6 to 18 h
# T47D cells = experiment: FACS cell cycle analysis after nocodazole
# Protocol: For PBK/TOPK, the cell cycle of cultured T47D breast cancer cells were synchronized via the treatment with aphidicolin (Sigma-Aldrich) for 16 h, washing 5 times with PBS (−), and addition of fresh culture media to release from cell-cycle arrest. For 15 h (every 3 h) after releasing, cells were collected and fixed with 70% ethanol, and then kept at 4° C. before use. Cells were incubated with 10 mg/mL RNaseI in PBS (−) at 37° C. for 30 min and stained with 50 μg of propidium iodide at room temperature for 30 min. Cell suspensions at each time point were analyzed with FACscan (Becton Dickinson, Franklin Lakes, N.J.).
# To collect the G2/M arrested cells, 0.3 μg/mL of nocodazole (Sigma-Aldrich) was treated to culture media for the last 16 hours before collection.
# A7322 = experiment: semi-quantitative RT-PCR of A7322 after siRNA vector transfection; conditions: BT-549 and BT-474 cells; compared with psiU6BX-Mock
# Protocol: Inventors established a vector-based RNAi (RNA interference) expression system using psiU6BX3.0 siRNA expression vector as described previously (Taniuchi K et al. Cancer Res., 65:105-112. 2005.). siRNA expression vectors against A7322 (psiU6BX3.0-A7322), F3374V1 (psiU6BX3.0-F3374V1), EGFP (psiU6BX3.0-EGFP), Scramble (psiU6BX3.0-SCR) and Mock (psiU6BX3.0-Mock) were prepared by cloning of double-stranded oligonucleotides into the BbsI site of the psiU6BX3.0 vector. The target sequences of synthetic oligonucleotides for siRNA were as follows;
# (§1) Human breast cancer cells-lines, BT-549 and BT-474 (for A7322) and T47D and HBC4 (for F3374), were plated onto 10-cm dishes (2×10^6 cells/dish) and transfected with 8 μg each of psiU6BX3.0-Mock (without insertion), psiU6BX3.0-A7322 (#2, #3 and a mismatch construct (m#3) including three-base substitutions in #3), psiU6BX3.0-F3374V1 (#1, and #4), psiU6BX3.0-EGFP, psiU6BX3.0-SCR using FuGENE6 reagent (Roche) as described above. Inventors selected the psiU6BX3.0-introduced BT-549, BT-474, T47D and HBC4, with medium containing 0.2 mg/ml or 1 mg/ml of neomycin (Geneticin, Gibco BRL, Carlsbad, Calif.), respectively. […] To evaluate an effect of siRNAs, total RNAs were extracted from the cells at 4-day incubation with neomycin, and then the knockdown effect of siRNAs was examined by a semi-quantitative RT-PCR using specific primer sets;
# BT-549 and BT-474 cells = experiment: colony-formation and MTT assays, A7322 siRNA
# Protocol: as §1
# Transfectants expressing siRNA were grown for 4 weeks in selective media containing neomycin, then fixed with 4% paraformaldehyde for 15 min before staining with Giemsa's solution (Merck, Whitehouse Station, N.J.) to assess colony number. To quantify cell viability, MTT assays were performed with cell counting kit-8 4 days after transfection according to manufacturer's recommendation (Wako, Osaka, Japan). Absorbance at 570 nm wavelength was measured with a Microplate Reader 550 (Bio-Rad). […]
# F3374 protein = experiment: western blot of F3374 protein after siAURKB; conditions: T47D cells; vs siEGFP
# Protocol: To detect the endogenous F3374 and AURKB proteins in breast cancer cell lines (HBC4, BT-549, HBC5, HBL100, HCC1937, MCF-7, MDA-MB-231, MDA-MB-453, SKBR3, and T47D, and ZR75-1) and human mammary gland epithelial cell (HMEC), cells were lysed in lysis buffer (50 mM Tris-HCl, pH 8.0/150 mM NaCl/0.5% NP-40) including 0.1% protease inhibitor cocktail III (Calbiochem, San Diego, Calif.). The amount of total protein was estimated by protein assay kit (Bio-Rad, Hercules, Calif.), and then proteins were mixed with SDS-sample buffer and boiled before loading at 10% SDS-PAGE gel. After electrophoresis, the proteins were blotted onto nitrocellulose membrane (GE Healthcare). After blocking with blocking solution (4% BlockAce; Dainippon Pharmaceutical. Co., Ltd, Osaka, Japan), membranes blotting proteins were incubated with anti-F3374 polyclonal antibody at 1:100 dilutions or anti-AURKB rabbit polyclonal antibody (abcam, Cambridge, UK) at 1:100 dilutions for detection of endogenous F3374 or AURKB protein. Finally the membrane was incubated with HRP conjugated-secondary antibody and protein-bands were visualized by ECL detection reagents (GE Healthcare). Beta-actin was examined to serve as a loading control. […]
# HBC4 cells = experiment: microscopy of morphological changes after siF3374; conditions: vs siEGFP
# From the text: (§2) Furthermore, the present inventors used siRNA oligonucleotides (Sigma Aldrich Japan KK, Tokyo, Japan) due to its high transfection efficiency to further verify the knockdown effects of F3374 and AURKB on cell morphology. The sequences targeting each gene were as follows:
# (§3) T47D or HBC4 cells (2.5×10^5 cells in 10 cm dish for FACS analysis) cells were transfected with those siRNAs using Lipofectamin RNAiMAX (Invitrogen) in Optimem (Invitrogen) medium according to the instructions of manufacture. Forty-eight hours after transfection, morphological changes of the HBC4 cells were examined by microscopy and by immunocytochemical staining analysis using Alexa Fluor 594 Phalloidin (Molecular Probe).
# F3374 = experiment: western blot of F3374 after siF3374 oligonucleotide; conditions: HBC4 cells
# From the text: as §2, §3
compound,measurement,setting,value
"CCn1cnc2c(Nc3cccc(Cl)c3)nc(N[C@@H]3CCCC[C@@H]3N)nc21 [CDK1 inhibitor, CGP74514A]",phosphorylation level of the Rb protein at Ser807 and 811,CDK1; 0 to 4 hours,decreased phosphorylation level
same,phosphorylation of PP1α at Thr320,CDK1; 0 to 4 hours,reduced phosphorylation
same,phosphorylation of PBK/TOPK induced by G2/M arrest,CDK1; 0 to 4 hours after nocodazole 16 hours,diminished in time-dependent manner
"C=C1[C@@H](O)[C@@H]2O[C@]3(CC[C@H](/C=C/[C@@H](C)[C@@H]4CC(C)=C[C@@]5(O[C@H](C[C@@](C)(O)C(=O)O)CC[C@H]5O)O4)O3)CC[C@H]2O[C@@H]1[C@@H](O)C[C@H](C)[C@H]1O[C@@]2(CCCCO2)CC[C@H]1C [OA, okadaic acid]",phosphorylation of PBK/TOPK,PBK/TOPK [1]; 100 nM for 9 hours,induced
same,phosphorylation of PBK/TOPK,PBK/TOPK [1]; low concentration (less than 100 nM),not
COC(=O)Nc1nc2ccc(C(=O)c3cccs3)cc2[nH]1 [nocodazole],intensity of high-molecular (phosphorylated) band of endogenous PBK/TOPK,PBK/TOPK [2],elevated in a time-dependent manner
same,proportion of cells at the G2/M phase,T47D cells; 6 to 18 h,elevated
same,cells synchronized at G2/M phase,T47D cells; treatment for 16 hours,61-70%
"m#3: mismatch siRNA with 3-bp replacement in A7322 si-#3, 5′-AATATTCGATCTCTGCCACAC-3′ (SEQ ID NO: 36) (listed as DNA, chemistry not given here)",expression level of A7322,A7322,no suppressive effect
same,growth of BT-549 and BT-474 cells,BT-549 and BT-474 cells,no suppressive effect
"siAURKB: siRNA oligonucleotide 5′-AAGGUGAUGGAGAAUAGCAGU-3′ (SEQ ID NO: 66) targeting AURKB (listed as RNA, chemistry not given here)",phosphorylated F3374 protein,F3374 protein,significant decrease
same,total F3374 protein,F3374 protein,significant decrease
"siF3374: siRNA oligonucleotide 5′-ACUCCUACGUUCUCUAUUA-3′ (SEQ ID NO: 65) targeting F3374 (listed as RNA, chemistry not given here)",morphological alterations: cell size,HBC4 cells,enlargement of the size of the cells
same,morphological alterations: cytokinesis,HBC4 cells,appearance of the intercellular bridges between two separating-cells
same,knockdown effect at the protein level (F3374),F3374,significant knockdown effect

# — patent US8673548B2, “Genes and polypeptides relating to breast cancers” (Oncotherapy Science, Inc., priority 2006, dated 2014)
